Results from ChEMBL document CHEMBL5696442, “Discovery of type II inhibitors of TGFβ-activated kinase 1 (TAK1) and mitogen-activated protein kinase kinase kinase kinase 2 (MAP4K2)” (J Med Chem, 2015).
Active and inactive are the calls of the source. The calls are words filed in the database; no cut-off is given here.

Legend:
[1] = target: Tyrosine-protein kinase receptor TYRO3 (Homo sapiens) (UniProt Q06418); assay: Inhibition of TYRO3 (unknown origin) at 1 uM by Ambit Kinomescan binding assay relative to control
[2] = target: Tyrosine-protein kinase ABL1 (Homo sapiens, UniProt P00519); assay: Inhibition of phosphorylated ABL1 (unknown origin) at 1 uM by Ambit Kinomescan binding assay relative to control; values are per cent of control
[3] = target: Wee1-like protein kinase (Homo sapiens) (UniProt P30291); assay: Inhibition of Wee1 Lys2 labeling site in human A-375 cells at 5 uM by KiNativ Profiling analysis relative to control; type: cell-based
[4] = target: 5'-AMP-activated protein kinase catalytic subunit alpha-2 (Homo sapiens) (UniProt P54646); assay: Inhibition of AMPKa2 Lys2 labeling site in human A-375 cells at 5 uM by KiNativ Profiling analysis relative to control; type: cell-based
[5] = target: Phosphatidylinositol 4-phosphate 5-kinase type-1 alpha (Homo sapiens) (UniProt Q99755); assay: Inhibition of PIP5K1A (unknown origin) at 1 uM by Ambit Kinomescan binding assay relative to control; values are per cent of control
[6] = target: Tyrosine-protein kinase Fer (Homo sapiens, UniProt P16591); assay: Inhibition of FER (unknown origin) ACT labeling site by KiNativ Profiling analysis
[7] = target: RAC-beta serine/threonine-protein kinase (Homo sapiens) (UniProt P31751); assay: Inhibition of AKT2 (unknown origin) at 10 uM by Ambit Kinomescan binding assay
[8] = target: T1, Eukaryotic elongation factor 2 kinase (Homo sapiens) (UniProt O00418); assay: Inhibition of eEF2K ATP labeling site harbouring YIKYNSNSGFVR in human A-375 cells at 5 uM by KiNativ Profiling analysis relative to control; type: cell-based
T1 sequence (whole entry): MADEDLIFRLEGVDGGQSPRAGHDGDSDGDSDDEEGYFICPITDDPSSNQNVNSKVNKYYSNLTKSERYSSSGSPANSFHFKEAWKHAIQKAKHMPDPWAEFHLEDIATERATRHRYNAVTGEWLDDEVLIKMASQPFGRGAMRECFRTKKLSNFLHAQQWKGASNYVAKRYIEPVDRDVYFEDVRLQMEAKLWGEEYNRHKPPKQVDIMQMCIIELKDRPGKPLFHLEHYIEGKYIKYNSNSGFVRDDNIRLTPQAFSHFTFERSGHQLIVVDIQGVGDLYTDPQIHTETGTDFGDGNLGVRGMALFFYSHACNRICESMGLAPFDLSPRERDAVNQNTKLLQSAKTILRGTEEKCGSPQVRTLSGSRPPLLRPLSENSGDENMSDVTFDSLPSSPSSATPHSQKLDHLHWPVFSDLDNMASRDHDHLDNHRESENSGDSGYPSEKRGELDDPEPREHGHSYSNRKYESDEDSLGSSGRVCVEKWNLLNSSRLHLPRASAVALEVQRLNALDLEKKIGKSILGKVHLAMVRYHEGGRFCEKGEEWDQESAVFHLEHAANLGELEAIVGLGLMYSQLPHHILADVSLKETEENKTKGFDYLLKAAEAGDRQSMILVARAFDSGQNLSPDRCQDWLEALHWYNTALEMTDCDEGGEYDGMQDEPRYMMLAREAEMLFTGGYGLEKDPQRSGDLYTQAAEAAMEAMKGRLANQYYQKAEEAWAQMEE

[9] = target: Ribosomal protein S6 kinase alpha-3 (Homo sapiens) (UniProt P51812); assay: Inhibition of RSK2 Domain 2 K2 labeling site harbouring DLKPSNILYVDESGNPESIR in human Huh-7 cells at 1 uM by KiNativ Profiling analysis relative to control; type: cell-based
[10] = target: T2, Dual specificity mitogen-activated protein kinase kinase 6 (Homo sapiens) (UniProt P52564); assay: Inhibition of MAP2K6 ACT labeling site in human Huh-7 cells at 10 uM by KiNativ Profiling analysis relative to control; type: cell-based
T2 sequence (whole entry): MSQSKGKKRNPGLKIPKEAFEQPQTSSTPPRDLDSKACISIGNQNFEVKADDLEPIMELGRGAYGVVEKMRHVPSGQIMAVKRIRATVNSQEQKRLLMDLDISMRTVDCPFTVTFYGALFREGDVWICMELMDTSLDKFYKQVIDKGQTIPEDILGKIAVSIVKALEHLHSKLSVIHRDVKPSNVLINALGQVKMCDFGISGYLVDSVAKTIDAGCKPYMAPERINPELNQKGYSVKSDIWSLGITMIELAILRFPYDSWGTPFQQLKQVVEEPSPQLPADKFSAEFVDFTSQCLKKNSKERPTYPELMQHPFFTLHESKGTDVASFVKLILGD

[11] = target: Ribosomal protein S6 kinase alpha-3 (Homo sapiens) (UniProt P51812); assay: Inhibition of RSK2 Domain 1 ACT labeling site harbouring LTDFGLSKESIDHEK in human Huh-7 cells at 10 uM by KiNativ Profiling analysis relative to control; type: cell-based
[12] = target: Fibroblast growth factor receptor 4 (Homo sapiens) (UniProt P22455); assay: Inhibition of FGFR4 (unknown origin) at 10 uM by Ambit Kinomescan binding assay relative to control
[13] = target: Serine/threonine-protein kinase PLK4 (Homo sapiens) (UniProt O00444); assay: Inhibition of PLK4 (unknown origin) at 10 uM by Ambit Kinomescan binding assay
[14] = target: Microtubule-associated serine/threonine-protein kinase 1 (Homo sapiens) (UniProt Q9Y2H9); assay: Inhibition of MAST1 Lys2 labeling site in human Huh-7 cell lysate at 1 uM by KiNativ Profiling analysis relative to control
Microtubule-associated serine/threonine-protein kinase 1 (Homo sapiens), sequence (Q9Y2H9 whole entry, looked up): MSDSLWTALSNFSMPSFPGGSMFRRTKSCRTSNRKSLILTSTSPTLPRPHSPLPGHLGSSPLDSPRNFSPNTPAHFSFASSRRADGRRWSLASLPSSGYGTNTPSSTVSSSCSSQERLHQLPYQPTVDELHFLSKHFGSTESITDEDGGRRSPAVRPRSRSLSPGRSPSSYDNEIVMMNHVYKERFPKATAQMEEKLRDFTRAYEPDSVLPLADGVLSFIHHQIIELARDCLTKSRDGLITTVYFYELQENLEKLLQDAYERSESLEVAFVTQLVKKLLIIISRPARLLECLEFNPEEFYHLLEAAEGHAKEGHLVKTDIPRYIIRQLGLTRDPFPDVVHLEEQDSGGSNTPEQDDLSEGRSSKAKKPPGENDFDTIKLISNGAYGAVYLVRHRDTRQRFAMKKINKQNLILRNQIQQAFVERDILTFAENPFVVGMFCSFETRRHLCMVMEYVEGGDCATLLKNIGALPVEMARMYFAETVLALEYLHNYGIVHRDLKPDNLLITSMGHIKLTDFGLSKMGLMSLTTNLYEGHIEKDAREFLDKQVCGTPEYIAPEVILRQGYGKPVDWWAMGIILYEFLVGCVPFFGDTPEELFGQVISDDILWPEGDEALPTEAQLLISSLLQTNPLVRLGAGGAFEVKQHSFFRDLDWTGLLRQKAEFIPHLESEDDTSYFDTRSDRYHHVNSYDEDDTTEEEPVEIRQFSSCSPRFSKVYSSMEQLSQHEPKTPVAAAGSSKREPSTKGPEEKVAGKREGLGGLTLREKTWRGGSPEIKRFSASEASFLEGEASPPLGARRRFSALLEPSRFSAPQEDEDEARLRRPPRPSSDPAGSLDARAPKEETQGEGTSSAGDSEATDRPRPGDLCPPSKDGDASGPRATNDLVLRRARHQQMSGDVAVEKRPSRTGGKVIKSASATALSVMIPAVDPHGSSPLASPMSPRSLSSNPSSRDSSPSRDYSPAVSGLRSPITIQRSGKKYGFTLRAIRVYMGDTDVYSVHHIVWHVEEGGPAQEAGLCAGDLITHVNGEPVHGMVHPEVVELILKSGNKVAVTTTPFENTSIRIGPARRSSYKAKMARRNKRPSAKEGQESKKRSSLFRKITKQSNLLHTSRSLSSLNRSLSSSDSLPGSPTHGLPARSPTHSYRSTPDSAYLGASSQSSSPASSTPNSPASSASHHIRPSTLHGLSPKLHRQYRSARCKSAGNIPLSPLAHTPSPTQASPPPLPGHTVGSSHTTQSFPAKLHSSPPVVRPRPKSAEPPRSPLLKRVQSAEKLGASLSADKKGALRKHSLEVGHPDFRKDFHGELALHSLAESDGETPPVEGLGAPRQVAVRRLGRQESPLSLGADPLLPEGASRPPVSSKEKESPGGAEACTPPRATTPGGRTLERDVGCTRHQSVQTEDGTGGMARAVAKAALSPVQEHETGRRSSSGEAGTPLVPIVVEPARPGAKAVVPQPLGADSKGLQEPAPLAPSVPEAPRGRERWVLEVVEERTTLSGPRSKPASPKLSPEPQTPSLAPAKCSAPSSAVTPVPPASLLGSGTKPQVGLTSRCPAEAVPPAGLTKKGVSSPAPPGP

Ribosomal protein S6 kinase alpha-3 (Homo sapiens), sequence (P51812 whole entry, the tested form may be a part): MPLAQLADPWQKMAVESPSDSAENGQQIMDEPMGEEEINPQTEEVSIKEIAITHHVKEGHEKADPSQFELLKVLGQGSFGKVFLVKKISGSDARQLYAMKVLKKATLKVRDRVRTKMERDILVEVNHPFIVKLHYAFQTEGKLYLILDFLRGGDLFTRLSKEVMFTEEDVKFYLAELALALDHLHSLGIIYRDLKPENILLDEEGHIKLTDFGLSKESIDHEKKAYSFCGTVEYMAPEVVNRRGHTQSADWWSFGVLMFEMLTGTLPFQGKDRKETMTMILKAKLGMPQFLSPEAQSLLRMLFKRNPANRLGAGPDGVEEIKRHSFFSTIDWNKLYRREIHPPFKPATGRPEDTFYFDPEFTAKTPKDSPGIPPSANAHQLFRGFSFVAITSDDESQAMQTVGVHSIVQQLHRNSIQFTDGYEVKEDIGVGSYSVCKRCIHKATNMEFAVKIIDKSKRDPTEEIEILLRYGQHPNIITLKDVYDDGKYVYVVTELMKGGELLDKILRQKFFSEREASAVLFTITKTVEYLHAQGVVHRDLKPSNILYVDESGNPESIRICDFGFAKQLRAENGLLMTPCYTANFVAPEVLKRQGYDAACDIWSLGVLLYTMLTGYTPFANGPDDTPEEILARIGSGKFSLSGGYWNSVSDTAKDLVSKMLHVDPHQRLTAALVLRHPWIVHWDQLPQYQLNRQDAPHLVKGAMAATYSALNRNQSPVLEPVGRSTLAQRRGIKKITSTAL
Phosphatidylinositol 4-phosphate 5-kinase type-1 alpha (Homo sapiens), sequence (Q99755 whole entry): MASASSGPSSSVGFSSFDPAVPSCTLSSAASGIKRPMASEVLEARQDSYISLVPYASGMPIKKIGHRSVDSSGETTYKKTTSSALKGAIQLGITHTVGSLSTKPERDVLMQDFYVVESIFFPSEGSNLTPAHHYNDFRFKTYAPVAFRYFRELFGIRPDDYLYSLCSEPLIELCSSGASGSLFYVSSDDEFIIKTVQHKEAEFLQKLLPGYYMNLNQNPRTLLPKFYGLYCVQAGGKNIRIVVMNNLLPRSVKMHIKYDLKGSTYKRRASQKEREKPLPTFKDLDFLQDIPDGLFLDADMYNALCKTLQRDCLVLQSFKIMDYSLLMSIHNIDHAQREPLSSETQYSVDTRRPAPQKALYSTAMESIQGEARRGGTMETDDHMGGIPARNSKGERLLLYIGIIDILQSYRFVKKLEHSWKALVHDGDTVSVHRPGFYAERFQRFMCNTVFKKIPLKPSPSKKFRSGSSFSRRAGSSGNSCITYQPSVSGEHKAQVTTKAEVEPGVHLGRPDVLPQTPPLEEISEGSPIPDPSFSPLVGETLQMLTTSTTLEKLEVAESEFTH
Fibroblast growth factor receptor 4 (Homo sapiens), sequence (P22455 22-802 limits assumed): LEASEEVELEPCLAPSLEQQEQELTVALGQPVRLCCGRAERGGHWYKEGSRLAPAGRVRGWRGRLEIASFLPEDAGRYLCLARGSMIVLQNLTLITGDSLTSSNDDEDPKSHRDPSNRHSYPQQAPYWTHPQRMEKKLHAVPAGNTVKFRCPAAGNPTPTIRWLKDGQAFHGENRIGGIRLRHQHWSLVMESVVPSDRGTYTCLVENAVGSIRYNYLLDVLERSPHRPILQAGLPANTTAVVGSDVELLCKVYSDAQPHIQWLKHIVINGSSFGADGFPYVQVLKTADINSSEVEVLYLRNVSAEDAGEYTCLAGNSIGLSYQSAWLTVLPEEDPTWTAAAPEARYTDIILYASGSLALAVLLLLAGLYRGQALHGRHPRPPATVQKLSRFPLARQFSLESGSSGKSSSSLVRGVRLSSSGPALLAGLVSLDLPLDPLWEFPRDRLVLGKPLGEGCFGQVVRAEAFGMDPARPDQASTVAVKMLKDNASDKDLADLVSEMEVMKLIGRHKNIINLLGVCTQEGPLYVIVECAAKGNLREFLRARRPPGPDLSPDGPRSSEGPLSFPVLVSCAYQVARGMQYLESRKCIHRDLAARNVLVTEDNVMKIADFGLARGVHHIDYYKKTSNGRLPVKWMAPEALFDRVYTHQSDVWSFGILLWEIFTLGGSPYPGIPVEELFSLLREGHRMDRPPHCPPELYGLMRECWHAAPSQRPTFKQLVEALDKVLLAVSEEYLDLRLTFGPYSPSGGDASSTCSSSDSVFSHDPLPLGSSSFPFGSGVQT
5'-AMP-activated protein kinase catalytic subunit alpha-2 (Homo sapiens), sequence (P54646 whole entry, looked up): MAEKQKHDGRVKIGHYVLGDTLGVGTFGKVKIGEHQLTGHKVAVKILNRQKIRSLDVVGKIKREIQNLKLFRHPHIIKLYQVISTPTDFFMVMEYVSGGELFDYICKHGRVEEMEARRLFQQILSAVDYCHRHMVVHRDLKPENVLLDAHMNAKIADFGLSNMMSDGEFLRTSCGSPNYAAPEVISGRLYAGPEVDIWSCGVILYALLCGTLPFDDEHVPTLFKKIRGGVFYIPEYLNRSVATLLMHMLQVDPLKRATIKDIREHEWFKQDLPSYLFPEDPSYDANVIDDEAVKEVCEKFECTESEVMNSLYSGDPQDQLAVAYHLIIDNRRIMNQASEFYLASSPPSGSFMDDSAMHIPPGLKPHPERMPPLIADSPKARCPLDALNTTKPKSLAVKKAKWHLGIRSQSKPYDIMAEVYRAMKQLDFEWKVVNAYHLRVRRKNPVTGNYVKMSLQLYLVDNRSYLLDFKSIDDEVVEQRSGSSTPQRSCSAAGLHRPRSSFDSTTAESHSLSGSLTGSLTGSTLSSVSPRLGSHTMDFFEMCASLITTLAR
RAC-beta serine/threonine-protein kinase (Homo sapiens), sequence (P31751 whole entry): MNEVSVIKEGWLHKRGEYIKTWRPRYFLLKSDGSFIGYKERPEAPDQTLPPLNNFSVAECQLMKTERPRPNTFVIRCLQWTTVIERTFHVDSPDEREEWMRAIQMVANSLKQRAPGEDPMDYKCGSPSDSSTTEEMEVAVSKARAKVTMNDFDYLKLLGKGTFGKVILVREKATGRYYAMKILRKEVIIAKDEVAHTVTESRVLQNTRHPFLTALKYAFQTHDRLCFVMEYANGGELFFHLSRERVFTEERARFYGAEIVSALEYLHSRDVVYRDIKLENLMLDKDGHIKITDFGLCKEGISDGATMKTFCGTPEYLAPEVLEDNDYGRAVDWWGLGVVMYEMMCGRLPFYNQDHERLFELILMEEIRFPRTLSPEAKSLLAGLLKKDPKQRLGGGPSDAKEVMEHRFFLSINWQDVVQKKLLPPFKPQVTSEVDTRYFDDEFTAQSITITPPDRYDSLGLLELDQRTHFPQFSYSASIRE

Q: Which results are given for `CCN1CCN(Cc2ccc(NC(=O)c3ccc(C)c(/C=C/c4cnc5[nH]ccc5c4OC)c3)cc2C(F)(F)F)CC1`?
A: inhibition [1]: 76%; % of control [2]: 0.7%; inhibition [3]: -0.1%; inhibition [4]: 18.5%; residual activity [5]: 21%

Q: What does the source list for `CCN1CCN(Cc2ccc(NC(=O)c3ccc(C)c(Oc4ccnc5[nH]ccc45)c3)cc2C(F)(F)F)CC1`?
A: IC50 [6]: 82.3 nM; inhibition [7]: inactive; inhibition [8]: -2.4%; inhibition [9]: 11.5%; inhibition [10]: 15.4%; inhibition [11]: -1.5%; inhibition [12]: 0.45%; inhibition [13]: inactive

Q: With `CNc1cc(Oc2cc(C(=O)Nc3cc(N4CCN(C)CC4)cc(C(F)(F)F)c3)ccc2C)ncn1` as the molecule, how does the inhibition [14] read?
A: 7.2%
